In the RepoRT retention time repository (doi:10.1038/s41597-019-0305-1):

Assay: RP, Waters SunFire C18, 50 × 4.6 mm, 3.5 µm, 0.5 mL/min, estimated dead time 1.1 min; A: water + 0.1% formic acid; B: acetonitrile + 0.1% formic acid; gradient (min/%B) 0/5 7/100 8/100
Details: stereoisomer not certain

| Compound | LC retention time [min] |
| --- | --- |
| Cc1cc(=O)c2c(O)c(C)c(O)cc2o1 | 4.52 |
| CCCCCC(=O)Cc1cc(O)cc2c1C(=O)Oc1cc(O)c(C(=O)O)c(CCCCC)c1O2 | 7.13 |
| CC(=O)OC(C)CC1CC(OC(C)=O)C(C)C(O)C(C)C(=O)OC(CC(C)OC(C)=O)CC(OC(C)=O)C(C)C(O)C(C)C(=O)O1 (centres undefined) | 6.35 |
| Cc1cc(O)c2c(c1)C(=O)c1c(c(O)cc(O)c1-c1c(O)cc(O)c3c1C(=O)c1cc(C)cc(O)c1C3=O)C2=O | 6.57 |
| Cc1cc(OC(=O)c2c(C)cc(O)cc2O)cc(O)c1C(=O)O | 5.3 |
| COC1=CC(=O)c2c(O)c3c(c(O)c2C1=O)CC(C)OC3=O (centres undefined) | 4.41 |
| CC(=O)C1=C(O)C=C2Oc3c(C)c(O)c(C(C)=O)c(O)c3C2(C)C1=O (centres undefined) | 7.45 |
| COc1cc(C)c(C(=O)Oc2cc(C)c(C(=O)O)c(O)c2)c(O)c1C | 6.54 |
| O=C1c2oc3cc(O)c(O)cc3c2C(=O)c2oc3cc(O)c(O)cc3c21 | 4.52 |
| COc1cc(C(=O)O)c2c(c1C)OC(=O)c1c(C)cc(O)c(C=O)c1O2 | 5.08 |
| Cc1cc(O)c2c(oc3cc(O)c(C(=O)O)c(C)c32)c1C(=O)O | 4.01 |
| Cc1cc(OC(=O)c2c(C)cc(OC(=O)c3c(C)cc(O)cc3O)cc2O)cc(O)c1C(=O)O | 6.53 |
| Cc1cc(O)c(C=O)c2c1C(=O)Oc1c(C)c(O)c3c(c1O2)C(O)OC3=O (centres undefined) | 5.3 |
| COc1cc(C)c2c(=O)c3c(O)cc(OC)cc3oc2c1 | 6.94 |
| COc1cc(C)c2c(c1C=O)Oc1c(c(CO)c(O)c3c1C(O)OC3=O)OC2=O (centres undefined) | 4.06 |
| Cc1cc(O)c2c(c1)C(=O)c1cccc(O)c1C2=O | 6.39 |
| CCCC(=O)Cc1cc(OC(=O)c2c(O)cc(OC)cc2CC(=O)CCC)cc(O)c1C(=O)O | 6.92 |
| CC(=O)C1=C(O)C=C2Oc3c(C(C)=O)c(O)c(C)c(O)c3C2(C)C1=O (centres undefined) | 7.27 |
| Cc1cc(O)c(C=O)c2c1C(=O)Oc1c(CO)c(O)c(C(=O)O)c(C)c1O2 | 5.62 |
| CCCCCc1c(C(=O)O)c(O)cc2oc3cc(OC)cc(CCC)c3c12 | 7.09 |
| Cc1cc(O)cc2c1C(=O)Oc1cc3c(c(O)c1O2)C(=O)OC3 | 4.58 |
| COc1cc(C)c(C(=O)O)c(O)c1C | 5.09 |
| COC(=O)C(Cc1ccccc1)NC(=O)C(=C1OC(=O)C(c2ccccc2)=C1O)c1ccccc1 (centres undefined) | 7.65 |

| Compound | LC retention time [min] |
| --- | --- |
| Cc1cc(O)c(C=O)c(O)c1C(=O)OCc1cc(O)c(C=O)c(O)c1C(=O)O | 7.26 |
| COC1=CC(=O)C(=O)c2cc3oc(C)cc(=O)c3c(OC)c21 | 4.03 |
| CC(=O)CCCCCCCCCCCCCC1OC(=O)C(C)=C1C(=O)O (centres undefined) | 6.9 |
| Cc1cc(=O)c2c(O)cc(O)c(C)c2o1 | 4.65 |
| COC(=O)c1c(C)cc(O)c(C)c1O | 5.37 |
| COC1=CC(=O)c2c(OC(C)=O)c3c(c(O)c2C1=O)CC(C)OC3=O (centres undefined) | 6.99 |
| Cc1cc(O)c(C=O)c(O)c1 | 4.33 |
| COc1cc(CCC(C(=O)[O-])[N+](C)(C)C)cc(OC)c1O (centres undefined) | 6.6 |
| Cc1cc(O)c2c(oc3cc(O)c4c(c32)COC4=O)c1C(=O)O | 3.95 |
| Cc1cc(O)c(C=O)c2c1C(=O)Oc1c(COC(=O)C=CC(=O)O)c(O)c(C(=O)O)c(C)c1O2 | 6.04 |
| CC(=O)OCC1OC(Oc2cc(O)c3c(=O)cc(C)oc3c2C)C(OC(C)=O)C(OC(C)=O)C1O (centres undefined) | 5.4 |
| COc1cc(C)c(C(=O)Oc2cc(C)c(C(=O)O)c(O)c2C)c(O)c1C | 7.26 |
| Cc1cc(O)cc2oc3cc(O)cc(O)c3c(=O)c12 | 5.15 |
| COc1cc(C)c2c(c1C=O)Oc1c(c(C)c(O)c3c1C(O)OC3=O)OC2=O (centres undefined) | 4.93 |
| CCCc1cc(OC)cc(O)c1C(=O)O | 5.25 |
| CC1C(=O)OC(CCCCCCCCCC(C)(C)C)C1C(=O)O (centres undefined) | 8 |
| O=C1c2cc(O)cc(O)c2C(=O)c2c(O)cc(CO)cc21 | 4.9 |
| COc1cc(O)c2c(c1)C(=O)c1cc(CO)cc(O)c1C2=O | 5.36 |
| Cc1cc(=O)c2c(O)c3c(cc2o1)C(=O)C(=O)C=C3O | 3.87 |
| C=C1C(=O)OC(CCCCCCCCCCCCC)C1C(=O)O (centres undefined) | 7.88 |
| CC(=O)OCc1c(O)c(C(=O)O)c(C)c2c1OC(=O)c1c(C)cc(O)c(C=O)c1O2 | 7.28 |
| CC1CCCCCCCCCCC(O)C(O)C(O)C=CC(=O)O1 (centres undefined) | 5.65 |
| COC(=O)C(CC(C)C)NC(=O)C(=C1OC(=O)C(c2ccccc2)=C1O)c1ccccc1 (centres undefined) | 7.82 |

| Compound | LC retention time [min] |
| --- | --- |
| O=C1C(O)=C(c2ccccc2)C(=O)C(O)=C1c1ccccc1 | 5.71 |
| CC(C)CC(NC(=O)C(=C1OC(=O)C(c2ccccc2)=C1O)c1ccccc1)C(=O)O (centres undefined) | 7.26 |
| Cc1cc(O)c(C=O)c(O)c1C(=O)O | 7.07 |
| COc1cc(C)c2c(c1C)Oc1c(cc(O)c(C(=O)O)c1C)OC2=O | 6.23 |
| COc1cc(O)c2c(c1)C(=O)c1cc(C(=O)O)cc(O)c1C2=O | 5.72 |
| COC12CC(=O)C(C(C)=O)=C(O)C1(C)c1c(O)c(C)c(O)c(C(C)=O)c1O2 (centres undefined) | 7.08 |
| COC12CC(=O)C(C(C)=O)=C(O)C1(C)c1c(O)c(C(C)=O)c(O)c(C)c1O2 (centres undefined) | 6.88 |
| COC(=O)c1c(C)cc(O)c(C=O)c1O | 5.48 |
| CCCCCC(=O)Cc1cc(O)cc2c1C(=O)Oc1cc(O)c(C(=O)O)c(CC(=O)CCCCC)c1O2 | 7.64 |
| C=C1C(=O)OC(CCCCCCCCCCCCCC(C)O)C1C(=O)O (centres undefined) | 6.53 |
| COc1cc(O)c2c(c1)C(=O)c1c(O)c(C)cc(O)c1C2=O | 4.75 |
| CC1=C(C(=O)O)C(CCCCCCCCCCCCC(C)CO)OC1=O (centres undefined) | 6.93 |
| CC(=O)OCC1OC(Oc2cc(O)c3c(=O)cc(C)oc3c2C)C(OC(C)=O)C(OC(C)=O)C1OC(C)=O (centres undefined) | 5.9 |
| CCCCCc1cc(OC)c(O)c2c1C(=O)Oc1cc(O)c(C(=O)O)c(CCCCC)c1O2 | 7.36 |
| CCCCCc1cc(OC(=O)c2c(O)cc(OC)cc2CCC(=O)CC)cc(O)c1C(=O)O | 7.31 |
| CC(=O)c1c(O)cc(O)cc1O | 3.77 |
| Cc1cc(O)c(C=O)c2c1C(=O)Oc1c(CO)c(O)c3c(c1O2)C(O)OC3=O (centres undefined) | 4.51 |
| Cc1cc(O)c(C)c(O)c1 | 3.25 |
| CCCc1cc(O)cc(O)c1C(=O)O | 4.15 |
| CCCCCCCCCCCCCCC(C(=O)OC)C(CC(=O)O)C(=O)O (centres undefined) | 8 |
| CCC(C)C(NC(=O)c1ccccc1)C(=O)NC(COC(=O)c1ccccc1)C(C)C (centres undefined) | 6.25 |
| COc1cc(C)c(C(=O)Oc2c(C)c(C(=O)O)c(O)c(C=O)c2O)c(O)c1C=O | 6.37 |
| COC(=O)c1c(OC)cc2oc3c(C(=O)O)c(C)cc(OC)c3c2c1C | 5.63 |
